Entries after “also recorded” stand apart in the source; their conditions may differ.
How the values were obtained:
[1] = tested on: rat complete Freund's adjuvant (CFA) model of hindpaw inflammation; experiment: Thermal hyperalgesia (modified Hargreaves apparatus) in rat CFA model of hindpaw inflammation; format: in vivo; settings: 10 mg/kg i.p.
Description: However, blockade of HCN channels with ZD7288 at 10 mg/kg, i.p., had no effect on thermal hyperalgesia (measured using a modified Hargreaves apparatus) in two different models of inflammatory pain: the rat carrageenan model of hindpaw inflammation, and the rat complete Freund's adjuvant (CFA) model of hindpaw inflammation. As shown supra, HCN blockade also had little effect on acute thermally evoked pain in the hot plate test.

[2] = tested on: SNL rats; experiment: Tactile allodynia (von Frey) in SNL (Chung) neuropathic pain model; format: in vivo, rat
Description: Preparation of SNL (spinal nerve ligation) model: All studies were conducted in keeping with the guidelines of the Institutional Animal Care Committees of the University of California, San Diego and RWJPRI. Male Harlan Sprague-Dawley rats, 100-150 g, were housed in cages with solid bottoms and sawdust bedding, with a 12/12 h reversed light cycle (lights on 2100-900), and allowed free access to food pellets and water. Animals were housed in groups of 2 after surgical interventions. A surgical neuropathy was created as follows, to create a model commonly referred to as the SNL, or spinal nerve ligation model, also commonly referred to as the Chung model. Under isoflurane/oxygen anesthesia, a dorsal midline incision was made from approximately L3-S2. Using a mixture of sharp and blunt dissection, the left L6/S1 posterior interarticular process was exposed and resected to permit adequate visualization of the L6 transverse process, which was gently removed. Careful teasing of the underlying fascia exposed the left L4 and L5 spinal nerves distal to their emergence from the intervertebral foramina. The nerves were gently separated, and the L5 and in some cases either the L4 (for in vitro electrophysiology recordings) or the L6 nerve firmly ligated with 6-0 silk suture material. The wound was then inspected for hemostasis and closed in two layers. Animals with thresholds greater than 4 g were considered unsuccessful preparations(Chaplan et al., (1994) Journal of Neuroscience Methods 53: 55-63).
Behavioral assessment: Behavioral signs of allodynia were documented as follows. Briefly, rats were transferred to a testing cage with a wire mesh bottom and allowed to acclimate for 10-15 minutes. […] Lifting of the paw was recorded as a positive response and the next lightest filament chosen for the next measurement. […]

[3] = tested on: CFA-injected rats; experiment: Tactile allodynia (von Frey) in complete Freund's adjuvant (CFA) paw model of inflammatory pain; format: in vivo, rat; settings: i.p.; ZD7288 10 mg/kg, ibuprofen 30 mg/kg, morphine 3 mg/kg, gabapentin 100 mg/kg

CCN(c1ccccc1)c1cc(=NC)n(C)c(C)n1.Cl [ZD7288]
effect on thermal hyperalgesia [1]: no effect
efficacy of allodynia suppression (% MPE) ([2]; i.p.): 75.7+/−15.4%
suppression of tactile allodynia ([2]; i.p. 1, 3, 10 mg/kg): blocked in a dose dependent manner; also recorded: suppressed the tactile allodynia
untoward behavioral effects / motor function ([2]; i.p., up to 10 mg/kg): No untoward behavioral effects; also recorded: without overt adverse effects on behavior
suppression of CFA-induced tactile allodynia [3]: suppressed allodynia; also recorded: markedly suppressed
